Here are results for 1 molecule from patent US11028212B2, “Chloroprene graft copolymer latex, method for producing same, bonding agent and adhesive” (SHOWA DENKO K.K., priority 2016, dated 2021).

The series is classed as physicochemical. As to conditions: polymerization initiator. From the text: The octanol/water partition coefficient is also expressed as LogPow and is an index representing hydrophobicity (solubility in lipid) of a chemical substance. The measurement method of the octanol/water partition coefficient is basically in accordance with OECD Test Guideline (“C (81) 30 appendix 1” determined by OECD Board of Directors) 107 or Japanese Industrial Standards Z7260-107 (2000), “Determination of partition coefficient (1-octanol/water)-Shake flask method”.

The molecule `CC(C)(C)OO` [t-butyl hydroperoxide] returned an octanol/water partition coefficient of −1.3.
